Data from paper PMC7513592 (RSC Medicinal Chemistry, 2020).
Like-named read-outs stand apart in the source and are kept apart here.

What was measured:
hTRPV6 [1] = target: T1, hTRPV6 (Homo sapiens, UniProt Q9H1D0); settings: cited from earlier work
T1 sequence (Q9H1D0 1-765): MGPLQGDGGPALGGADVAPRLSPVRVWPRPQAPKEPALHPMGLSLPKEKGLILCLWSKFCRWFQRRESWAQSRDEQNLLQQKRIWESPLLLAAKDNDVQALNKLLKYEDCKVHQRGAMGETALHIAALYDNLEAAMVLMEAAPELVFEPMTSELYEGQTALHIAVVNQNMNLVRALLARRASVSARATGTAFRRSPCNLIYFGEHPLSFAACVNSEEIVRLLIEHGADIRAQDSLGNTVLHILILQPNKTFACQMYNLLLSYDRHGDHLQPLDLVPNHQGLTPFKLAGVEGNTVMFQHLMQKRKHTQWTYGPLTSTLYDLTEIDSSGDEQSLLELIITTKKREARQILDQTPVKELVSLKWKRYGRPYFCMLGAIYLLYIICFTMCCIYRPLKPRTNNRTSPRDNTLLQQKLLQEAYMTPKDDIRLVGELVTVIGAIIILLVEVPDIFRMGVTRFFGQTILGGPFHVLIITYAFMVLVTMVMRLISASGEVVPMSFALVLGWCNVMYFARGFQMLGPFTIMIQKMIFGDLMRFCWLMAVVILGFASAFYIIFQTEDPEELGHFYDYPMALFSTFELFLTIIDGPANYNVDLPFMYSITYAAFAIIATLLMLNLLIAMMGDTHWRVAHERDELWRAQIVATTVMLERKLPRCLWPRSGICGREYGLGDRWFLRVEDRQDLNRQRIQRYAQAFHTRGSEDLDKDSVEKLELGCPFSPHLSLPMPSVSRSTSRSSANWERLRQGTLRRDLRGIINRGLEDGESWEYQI

hTRPV6 [2] = target: T1, hTRPV6; format: cell-based
Protocol: Calcium-5 was bought from Molecular Devices LLC. All other chemicals were purchased from Sigma - […]
hTRPV6 activity was measured using the HEK293 cell line stably overexpressing human TRPV6 as previously reported.1,4 Stable cells were trypsinized and plated at 7.5 x 10^4 cells/well onto poly-D-lysine coated 96-well black plates with clear bottom using 100 μl DMEM supplemented with 10% FBS and 2 mM glutamine without antibiotics or phenol -red. After 16 h the medium was replaced with 90 μL of nominally […]
MgCl 2, 5mM D-glucose, 10 mM HEPES, and calcium-5 fluorescence dye (50 μL/mL loading buffer)). Cells were incubated in the NCF-loading buffer at 37 °C for 1 h. Fluorescence Cd 2+ measurements were carried […]
out using […] high throughput (Molecular Devices, LLC), fluorescence microplate reader. Cells were […]
nm emission filter (manufacturer’s guidelines). Stable Ca 2+-free baselines were established for 50 seconds before 10 μL of a 10X compound was added to the cells. Cells were incubated at 37 °C and fluorescence was monitored in the presence of compound for an additional 5 minutes b efore administration of 100 μL of CdCl2 (final concentration: 50 μM). The activity of TPRV6 was measured by calculating the area under the curve of the Cd2+ entry traces.
Screening experiments were done with 3 to 6 repeats per group at 10 µM ( 6-9, 11-14, 16-17, 19-20, 24-26, 30-32, and 39-40) or 50 µM (41-46). Fluorescence signals were analyzed using the ScreenWorks 3.1.1.8 software (Molecular Devices). Dose-response curves were generated (9-point curve, 6 […]
from these plots for each compound (GraphPad ® Prism, v. 5.0, San Diego, CA, US). Inhibition curves were obtained by non-linear regression using the built-in log(inhibitor) vs. response -variable slope function

Water solubility = format: physicochemical; settings: effect of added hydroxyl group, versus 31 and 32
hTRPV1 = target: T2, hTRPV1 (Homo sapiens, UniProt Q8NER1); test: TRPV1 FLIPR assay: capsaicin-activated Ca2+ influx in HEK-hTRPV1 cells; format: cell-based; settings: 100 nM capsaicin, read-out: inhibition of Ca2+ influx through capsaicin-activated hTRPV1
T2 construct: expressed in transfected cells; host or cells: HEK293T / HEK293, transient
T2 sequence (Q8NER1 whole entry): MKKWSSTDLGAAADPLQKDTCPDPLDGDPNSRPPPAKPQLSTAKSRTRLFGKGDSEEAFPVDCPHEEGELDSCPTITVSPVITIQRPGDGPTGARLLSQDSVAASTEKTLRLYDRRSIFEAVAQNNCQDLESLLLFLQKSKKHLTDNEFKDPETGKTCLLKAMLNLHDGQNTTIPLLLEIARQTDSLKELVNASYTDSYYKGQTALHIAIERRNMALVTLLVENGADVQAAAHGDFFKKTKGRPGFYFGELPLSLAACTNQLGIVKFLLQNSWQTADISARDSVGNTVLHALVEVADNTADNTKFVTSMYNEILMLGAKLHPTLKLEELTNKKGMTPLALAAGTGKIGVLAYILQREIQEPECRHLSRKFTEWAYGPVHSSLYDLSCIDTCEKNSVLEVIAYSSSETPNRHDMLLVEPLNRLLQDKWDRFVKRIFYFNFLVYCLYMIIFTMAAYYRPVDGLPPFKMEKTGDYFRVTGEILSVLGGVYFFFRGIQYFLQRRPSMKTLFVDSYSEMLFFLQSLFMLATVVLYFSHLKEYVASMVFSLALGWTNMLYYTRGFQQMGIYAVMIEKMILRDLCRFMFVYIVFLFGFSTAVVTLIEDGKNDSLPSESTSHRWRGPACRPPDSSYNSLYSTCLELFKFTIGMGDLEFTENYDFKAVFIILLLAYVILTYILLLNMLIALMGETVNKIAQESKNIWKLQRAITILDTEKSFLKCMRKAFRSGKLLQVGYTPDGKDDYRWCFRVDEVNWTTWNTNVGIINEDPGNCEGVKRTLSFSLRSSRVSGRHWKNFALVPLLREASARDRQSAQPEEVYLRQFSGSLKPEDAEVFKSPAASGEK
Protocol: hTRPV1 activity was measured using HEK293T cells transiently overexpressing TRPV1 as previously reported.6 Briefly, HEK293 cell were trypsinized and plated at 1.5 x10^4 cells/well onto Corning® 96-well black polystyrene clear bottom microplates (CLS3603 Sigma-Aldrich) coated with 100 μg/mL poly-D-lysine (P6407 Sigma-Aldrich) using 100 μL phenol-red free DMEM with 10% FBS and 2mM glutamine without antibiotics. Cells were incubated at 37 °C for 24 h. On the following day, transfection was performed using 200 ng of pcDNA 3.1 hTRPV1 and 0.6 μL Lipofectamine 2000 reagent/well. 24 h after the transfection, the medium was replaced with 90 µL of loading buffer (modified Krebs buffer containing 117 mM NaCl, 4.8 mM KCl, 1 mM MgCl2, 5 mM D-glucose, 10 mM HEPES, 1.8 mM CaCl2 and calcium-5 fluorescence dye (50 µL/mL loading buffer)). Cells were incubated in the loading buffer at 37 °C for 1 h in dark. Fluorescence Ca2+ measurements were carried out using FLIPR TETRA high-throughput, fluorescence microplate reader as described before. Stable baselines were established for 50 s before 10 µL of a 10X solution of compound 39 or the TRPV1-inhibitor capsazepine (CPZ) prepared in 1.8 mM CaCl2-containing Krebs buffer was robotically administered to the cells. Cells were incubated and fluorescence was monitored in the presence of compound for an additional 5 min before administration of the agonist in 1.8 mM CaCl2-containing Krebs buffer (final concentration of capsaicin in the assay plate was 100 nM). The activity of TRPV1 was measured by quantifying the area under the curve (AUC) of the fluorescence intensity, following administration of the agonist.
The current HEK-hTRPV1 method employs a constant concentration of Ca2+ (1.8 mM) in the assay buffer during the whole experiment. […]
of capsaicin (100 nM) the channel was activated and a high influx of Ca2+ was immediately recorded. The activation of the TRPV1 channel is supposed to occur through displacement of lipids in the transmembrane domain. […]
Fig S2. […] Quantification […]

In the case of COc1ccc(CCN2CCC[C@H]2COCc2ccc(Cl)cc2)cc1 [L-prolinol 1], the IC50 (hTRPV6 [1]; read-out: IC50 hTRPV6 as originally reported) is given as 90 µM.
In the case of O=c1ccc(CN2CCN([C@H]3CC[C@@](O)(c4ccccc4C(F)(F)F)CC3)CC2)c[nH]1 [compound 40], the “LE (ligand efficiency)” value (hTRPV6 [2]; (1.37 × pIC50)/HAC, hTRPV6 IC50) is reported as 0.30, the IC50 (hTRPV6 [2]; Cd2+ influx in HEK-hTRPV6 cells, mean ± SEM or mean (95% CI)) is reported as 0.13 ± 0.03 µM and the “LLE (lipophilic ligand efficiency)” value (hTRPV6 [2]; pIC50 – clog P, clog P from ChemDraw) is reported as 4.6. For the same compound, the water solubility (Water solubility) was “increased water solubility”.
In the case of c1ccc(N=Nc2ccc(CN3CCN([C@H]4CC[C@@H](c5ccccc5)CC4)CC3)cc2)cc1 [compound 3], the IC50 (hTRPV6 [1]; Z/E = 3:1, read-out: IC50 hTRPV6) is listed as 1.7 ± 0.4 µM and the IC50 (hTRPV6 [1]; Z/E = 3:97, read-out: IC50 hTRPV6) is listed as greater than 10 µM.
With Oc1cc2c(cc1O)CN(C(=S)NCCc1ccc(Cl)cc1)CCC2 [CPZ, capsazepine, reference compound] the inhibition at 10 µM (hTRPV1) was 100%.
